Measured values taken from article PMC11436757, “BRCA2 stabilises RAD51 and DMC1 nucleoprotein filaments through a conserved interaction mode” (Nature Communications, 2024).
Entries after “also recorded” stand apart in the source; their conditions may differ. No end group written: not given here.

Key:
DMC1-ssDNA filaments [1] = assay: EMSA, super-shift of DMC1-ssDNA filaments (TEA pH 7.5 + KCl); assay type: biochemical, human
Excerpt: (§1) What is the function of the BRCA2 Ex14-DMC1 interaction? We used electrophoretic mobility shift assays (EMSAs) to determine the impact of BRCA2-binding on DMC1 nucleoprotein filaments. We used two different conditions for nucleoprotein filament assembly. Firstly, a TAE (tris, acetate, EDTA; pH 7.5) buffer that was previously used for RAD51-ssDNA filaments, in which DMC1-ssDNA filaments were partially formed at the canonical ratio of three nucleotides to one protomer (Fig. 3a). Secondly, a TEA (triethanolamine; pH 7.5) + KCl buffer based on previous DMC1 studies[36]–[38], in which DMC1-ssDNA filament formation was more complete at the canonical ratio (Fig. 3b). […] This was noticeable using Ex14 in equimolar amounts (11 μM), and became substantial at a 5-fold stoichiometric excess (55 μM) (Fig. 3b). As the KD of the DMC1-Ex14 interaction is approximately 30 μM (Fig. 2a), the requirement for a stoichiometric excess is likely due to binding being favoured at Ex14 concentrations above the KD.
(§2) To form nucleoprotein filaments, DMC1 and RAD51 was incubated with fluorescent 100-base ssDNA (5’-FAM- […]-3’) at the concentrations indicated in the figures for 30 minutes at 4 °C in reaction buffer. For DMC1, reaction buffer is 25 mM TEA (triethanolamine) pH 7.5, 1 mM ATP, 2 mM MgCl2, 0.1 mg/ml BSA, 2 mM DTT, 200 mM KCl. For RAD51, reaction buffer is 50 mM TEA (triethanolamine), 2 mM ATP, 0.5 mM MgCl2, 2 mM DTT. For assays requiring incomplete nucleoprotein filament assembly, the reaction buffer consisted of 50 mM TAE (tris, acetate, EDTA) pH 7.5, 2 mM ATP, 2 mM MgCl2, 2 mM DTT. In nucleoprotein formation stimulation assays or supershift experiments, BRCA2Ex14 or BRCA2Ex14-AAA were added for a further 30 min at 4 °C. […] Glycerol was added at a final concentration of 3%, and samples were analysed by electrophoresis on a 1% (w/v) (for DMC1) or 0.66% (w/v) (for RAD51) agarose gel in 0.5x TAE pH 8.0 at 20–40 V for ~4 h at 4 °C. DNA was detected by FAM using a Typhoon^TM FLA 9500 (GE Healthcare), with 473 nm laser at excitation wavelength 490 nm and emission wavelength 520 nm, using the LPB filter and a PMT voltage of 500 V. To analyse RAD51 nucleoprotein filaments assembled upon 100-base poly(dT) ssDNA, gels were stained post-run using SYBR^TM Gold Nucleic Acid Gel Stain (Invitrogen) and detected using a Typhoon^TM FLA 9500 (GE Healthcare).

DMC1 = conditions: ref [21],[27],[32]; cited from earlier work
Excerpt: The PhePP-binding site of DMC1 is formed by two loops, corresponding to amino-acids 147-153 and 178-183, respectively. The first loop consists of amino-acids 147-GAGGYPG-153 in DMC1 and 148-IDRGGGE-154 in RAD51 (herein referred to as PhePP-binding loop A; Fig. 1d), and is one of the most divergent regions between DMC1 and RAD51 (Supplementary Fig. 4). The second loop consists of amino-acids 178-NVDHDA-183 in DMC1 and 179-GLSGSD-184 in RAD51 (herein referred to as PhePP-binding loop B; Fig. 1e), in which residues V179 (DMC1) and L180 (RAD51) substantially contribute to the PhePP-binding pocket. ...

DMC1-ssDNA filaments [2] = assay: EMSA, stimulation of DMC1-ssDNA filament formation (TAE pH 7.5); assay type: biochemical, human; conditions: TAE pH 7.5
Excerpt: as §1, §2

[3] = tested on: DMC1 V179E-ssDNA filaments; assay: EMSA, super-shift of filaments formed using DMC1 V179E; assay type: biochemical, human
Method: as §2

DMC1 ΔN V179E = assay: Amylose pull-down of His-DMC1 ΔN V179E with MBP-BRCA2 fusions; assay type: binding, human; conditions: lysates mixed; MBP-BRCA2 fusion; 20 mM Tris pH 8.0, 500 mM KCl, 2 mM DTT
Method: (§3) For affinity experiments involving DMC1 ΔN V179E and F85E, MBP-fusions of BRCA2 fragments (Ex14, amino-acids 2387-2420, Ex14-Tr, amino acids 2401-2414, BRC4, amino acids 1519-1551) were cloned into pMAT11 vectors and DMC1 ΔN mutants (V179E or F85E) were cloned into pHAT4 vectors. Lysates of bacterial cultures expressing His6-DMC1 mutants or MBP-BRCA2 constructs were mixed, and complexes were purified through amylose affinity chromatography in 20 mM Tris pH 8.0, 500 mM KCl, 2 mM DTT and eluted using 30 mM D-maltose.

DMC1 ΔN F85E = assay: Amylose pull-down of His-DMC1 ΔN F85E (monomeric) with MBP-BRCA2 fusions; assay type: binding, human; conditions: lysates mixed; MBP-BRCA2 fusion; 20 mM Tris pH 8.0, 500 mM KCl, 2 mM DTT
Method: as §3

RAD51-ssDNA filaments = assay: EMSA, protection of RAD51-ssDNA filaments from BRC4-mediated disruption (random sequence ssDNA); assay type: biochemical; conditions: 100-nt random ssDNA; 10-fold excess of Ex27
Method: as §2

[4] = tested on: RAD51-ssDNA (polydT) filaments; assay: EMSA, protection of RAD51-ssDNA (polydT) filaments from BRC4-mediated disruption; assay type: biochemical
Method: as §2

RAD51 = conditions: cited from earlier work
Excerpt: BRCA2 interacts with RAD51 and DMC1 recombinases through BRC repeats and PhePP motifs (Fig. 1a)[21],[25]–[28]. The eight BRC repeats, located within BRCA2’s central exon 11 region, bind to RAD51 and DMC1 with various affinities[25],[29],[30]. […] The first loop consists of amino-acids 147-GAGGYPG-153 in DMC1 and 148-IDRGGGE-154 in RAD51 (herein referred to as PhePP-binding loop A; Fig. 1d), and is one of the most divergent regions between DMC1 and RAD51 (Supplementary Fig. 4). The second loop consists of amino-acids 178-NVDHDA-183 in DMC1 and 179-GLSGSD-184 in RAD51 (herein referred to as PhePP-binding loop B; Fig. 1e), in which residues V179 (DMC1) and L180 (RAD51) substantially contribute to the PhePP-binding pocket. ...

[5] = tested on: RAD51 L180E-ssDNA (polydT) filaments; assay: EMSA, protection of RAD51 L180E-ssDNA (polydT) filaments from BRC4-mediated disruption; assay type: biochemical; conditions: 100-nt polydT
Method: as §2

Row | Substance | super-shift of pre-formed DMC1-ssDNA filaments (DMC1-ssDNA filaments [1]; 5-fold stoichiometric excess (55 μM)) | super-shift of pre-formed DMC1-ssDNA filaments (DMC1-ssDNA filaments [1]; 100-nt random ssDNA, 4 °C) | super-shift of pre-formed DMC1-ssDNA filaments (DMC1-ssDNA filaments [1]; equimolar (11 μM)) | selective binding to DMC1 (DMC1) | stimulation of DMC1-ssDNA filament formation upon changing order of addition (DMC1-ssDNA filaments [2]; Ex14 added after DMC1-ssDNA, with DMC1 prior to ssDNA, or with ssDNA prior to DMC1) | stimulation of DMC1-ssDNA nucleoprotein filament formation (DMC1-ssDNA filaments [2]; 100-nt random ssDNA, 4 °C, canonical ratio of three nucleotides to one protomer, equimolar for Ex14) | super-shift of DMC1 V179E-ssDNA filaments [3] | binding in pull-down (DMC1 ΔN V179E) | binding in pull-down (DMC1 ΔN F85E) | protection of RAD51-ssDNA filaments from BRC4-mediated disruption (RAD51-ssDNA filaments) | protection of RAD51-ssDNA (polydT) filaments from BRC4-mediated disruption ([4]; 3-fold excess of Ex27 (33 μM), 10-fold excess of BRC4) | protection of RAD51-ssDNA (polydT) filaments from BRC4-mediated disruption ([4]; 100-nt polydT, 10-fold excess of Ex27) | protection of RAD51-ssDNA filaments from BRC4-mediated disruption ([4]; equimolar Ex27 (11 µM), 10-fold excess of BRC4) | selective binding to RAD51 (RAD51; ref [21],[27],[32]) | binding to RAD51 filaments versus monomers (RAD51; ref [33],[34]) | protection of RAD51 L180E-ssDNA (polydT) filaments from BRC4-mediated disruption [5]
1 | ATRNEKMRHLITTGRPTKVFVPPFKTKSHFHRVE [Ex14] | substantial | inducing a super-shift; also recorded: induced a super-shift | noticeable | bind selectively to DMC1 | same degree; also recorded: same stimulation; also recorded: order of addition did not affect | stimulates DMC1-ssDNA nucleoprotein filament assembly, achieving complete DMC1-ssDNA filament formation; also recorded: promoted the formation of DMC1-ssDNA filaments | The residual super-shift was the same; also recorded: only minimal super-shift | failed to interact; also recorded: blocked its ability to bind Ex14 | failed to interact; also recorded: no interaction | – | – | – | – | – | – | –
2 | Ex27: BRCA2 exon 27 PhePP peptide, amino acids 3270-3315 (ALDFLSRLPLPPPVSPICTFVSPAAQKAFQPPRSCGTKYETPIKKK; UniProt P51587 3270-3315, looked up, fragment) | – | – | – | – | – | – | – | – | – | less complete; also recorded: not complete; also recorded: protected against BRC4-mediated disruption | some protection; also recorded: protection at a 3-fold excess | protects; also recorded: full protection; also recorded: complete protection | no protection | bind selectively to DMC1 and RAD51, respectively | binds to RAD51 filaments, rather than monomers | not protected; also recorded: almost entirely lost; also recorded: abrogated
